# How the values were obtained:
# [1] = system: NZB/W F1 lupus-prone mice; test: Kidney histopathological evaluation (H&E); format: in vivo, mouse; details: 120 mg/kg by gavage daily; week 34; H&E kidney sections; vs disease control mice
# Protocol: (§1) Female NZB/W F1 mice were purchased from the Animal Center of the National Taiwan University (Taipei, Taiwan, ROC) and, at 12 weeks of age, were divided into two groups, one of which was given normal saline and served as the disease control, while the other was given 120 mg/kg body weight of EGCG (Ryss Lab, Inc., CA, USA) (this dose is a slight modification of those used in previous in vivo studies) by gavage daily till sacrificed at 34-weeks-old. 8-Week-old NZB/W F1 female mice (prior to onset of autoantibody production) were used as normal controls. Urine samples were collected in metabolic cages every 2 weeks and urine protein levels were measured, and serum samples were used to measure serum levels of blood urea nitrogen (BUN) and creatinine (Cr) as described previously (Ka, S. M. et al. Decoy receptor 3 ameliorates an autoimmune crescentic glomerulonephritis model in mice. J Am Soc Nephrol 18:2473-2485; 2007). All animal experiments were performed upon the ethical approval of the Institutional Animal Care and Use Committee of the National Defense Medical Center, Taiwan and according to the ethical rules in the NIH Guide for the Care and Use of Laboratory Animals. Formalin-fixed and paraffin-embedded renal sections were prepared for pathologic evaluation.
# [2] = system: NZB/W F1 lupus-prone mice; test: Serum BUN and creatinine (renal function) in NZB/W F1 mice; format: in vivo, mouse; details: 120 mg/kg by gavage daily; week 34; vs disease control mice
# Protocol: as §1, with “Animals.” for “Animals. Formalin-fixed and paraffin-embedded renal sections were prepared for pathologic evaluation.”
# [3] = system: CD4+CD25+ Treg cells; test: Treg cell functional assay (3H-thymidine proliferation, cells from treated mice); format: cell-based, mouse
# [4] = system: CD19+CD69+ cells (activated B cells); test: B cell activation in splenocytes by flow cytometry; format: in vivo, mouse; details: 120 mg/kg by gavage daily; week 34; EGCG-treated vs disease mice
# Protocol: as §1, with “Formalin-fixed and paraffin-embedded renal sections were prepared for pathologic evaluation.” left out
# [5] = system: superoxide anion; test: Kidney in-situ ROS production by dihydroethidium (DHE) labeling; format: in vivo, mouse; details: 120 mg/kg by gavage daily, week 34
# Protocol: as §1, with “[…] Kidney in situ superoxide anion production was determined by dihydroethidium (DHE) labeling. Fluorescent images” for “All animal experiments”, “quantified by counting” for “performed upon”, “percentage” for “ethical approval”, “positive nuclei” for “the Institutional Animal Care and Use Committee of the National Defense Medical Center, Taiwan and according to the ethical rules”, “total nuclei per kidney cross-section. Superoxide anion levels in serum and kidney tissues were measured as described previously and” for “NIH Guide for”, “results expressed as reactive luminescence units (RLU) per 15 min per milligram dry weight (i.e., RLU/15 min/mg dry weight).” for “Care and Use of Laboratory Animals. Formalin-fixed and paraffin-embedded renal sections were prepared for pathologic evaluation.”
# [6] = system: NLRP3 mRNA; test: Renal NLRP3 mRNA by real-time PCR; format: in vivo, mouse; details: 120 mg/kg by gavage daily; week 34; increase seen in disease control
# Protocol: as §1, with “Animals.” for “Animals. Formalin-fixed and paraffin-embedded renal sections were prepared for pathologic evaluation.”
# [7] = system: NZB/W F1 lupus-prone mice; test: Urine protein time course in NZB/W F1 lupus-prone mice; format: in vivo, mouse; details: 120 mg/kg EGCG by gavage daily from 12 weeks of age; weeks 28-34; vs disease control mice
# Protocol: as §1, with “Animals.” for “Animals. Formalin-fixed and paraffin-embedded renal sections were prepared for pathologic evaluation.”
substance,measurement,setting,value
Epigallocatechin-3-gallate [EGCG],"severe renal lesions (glomerular proliferation, crescents, interstitial inflammation, fibrosis)",[1],greatly reduced
same,serum levels of BUN,[2],significantly lower
same,serum levels of Cr,[2],significantly lower
same,proliferation of Treg cells incubated alone following anti-CD3 antibody stimulation,[3]; Treg cells from EGCG-treated mice,did not proliferate
same,inhibition of responder T cell proliferation by added Treg cells (Treg cell activity),"[3]; Treg cells from EGCG-treated mice vs Treg cells from disease control mice, titration",much greater
same,proliferation of responder T cells incubated alone following anti-CD3 antibody stimulation,[3]; responder T cells from EGCG-treated vs disease control mice,"proliferated, but to an equal extent"
same,percentage of CD19+CD69+ cells (activated B cells) in CD19+ splenocytes,[4],no significant difference
same,DHE fluorescence (in-situ ROS production in renal tissue),[5],very low
same,levels of NLRP3 mRNA in kidney tissues,[6],inhibited
same,urine protein levels,[7],markedly inhibited

# From US20120309821A1, “Use of epigallocatechin-3-gallate for immune regulation” (NATIONAL DEFENSE MEDICAL CENTER, priority 2011, published 2012)
